Data as given in patent US7182954B1, “Prebiotic oligosaccharides via alternansucrase acceptor reactions” (priority 2003, dated 2007).

Assays:
[1] = test system: Bifidobacterium adolescentis 15703; test: Oligosaccharide utilization (growth) by colonic bacteria; format: cell-based; conditions: 0.5% oligosaccharide preparation, anaerobic, 5 days, 37° C
[2] = test system: Salmonella typhimurium 14028; test: as above; format: cell-based, Salmonella choleraesuis (typhimurium); conditions: 0.5% oligosaccharide preparation, anaerobic, 5 days, 37° C
[3] = test system: Bifidobacterium thermophilum 25866; test: as above; format: cell-based; conditions: 0.5% oligosaccharide preparation, anaerobic, 5 days, 37° C
[4] = test system: Bifidobacterium infantis 15697; test: as above; format: cell-based; conditions: 0.5% oligosaccharide preparation, anaerobic, 5 days, 37° C
Lactobacillus GG 53103 = test: as above; format: cell-based, Lactobacillus rhamnosus GG; conditions: 0.5% oligosaccharide preparation, anaerobic, 5 days, 37° C
[5] = test system: Bifidobacterium breve 15698; test: as above; format: cell-based; conditions: 0.5% oligosaccharide preparation, anaerobic, 5 days, 37° C
[6] = test system: Clostridium perfringens 13124; format: cell-based; conditions: 0.5% oligosaccharide preparation, anaerobic, 5 days, 37° C
[7] = test system: Lactobacillus acidophilus 4356; test: Oligosaccharide utilization (growth) by colonic bacteria; format: cell-based; conditions: 0.5% oligosaccharide preparation, anaerobic, 5 days, 37° C
[8] = test system: Bifidobacterium longum 15707; test: as above; format: cell-based; conditions: 0.5% oligosaccharide preparation, anaerobic, 5 days, 37° C
[9] = test system: Bifidobacterium catenulatum 27539; test: as above; format: cell-based; conditions: 0.5% oligosaccharide preparation, anaerobic, 5 days, 37° C
[10] = test system: Bacteroides thetaiotaomicron 29148; format: cell-based; conditions: 0.5% oligosaccharide preparation, anaerobic, 5 days, 37° C
[11] = test system: Bifidobacterium gallicum 49850; test: Oligosaccharide utilization (growth) by colonic bacteria; format: cell-based; conditions: 0.5% oligosaccharide preparation, anaerobic, 5 days, 37° C
alternansucrase = test: Comparison of acceptor strengths with alternansucrase, relative amount of alternan formed; conditions: for Alternan (Rel. %): 45 μL 10% (w/v) sucrose, 45 μL 10% (w/v) acceptor, 10 μL alternansucrase, pH 5.4, room temperature, less alternan = stronger acceptor; for acceptor strength for alternansucrase, in words: text summary of Table I
Lactobacillus casei 393 = test: Oligosaccharide utilization (growth) by colonic bacteria; format: cell-based; conditions: 0.5% oligosaccharide preparation, anaerobic, 5 days, 37° C
[12] = test system: Bifidobacterium boum 27917; test: as above; format: cell-based; conditions: 0.5% oligosaccharide preparation, anaerobic, 5 days, 37° C
[13] = test system: Enterobacter aerogenes 35028; test: as above; format: cell-based; conditions: 0.5% oligosaccharide preparation, anaerobic, 5 days, 37° C
[14] = test system: Bifidobacterium ruminantium 4939; test: as above; format: cell-based; conditions: 0.5% oligosaccharide preparation, anaerobic, 5 days, 37° C
[15] = test system: Bifidobacterium bifidum 29521; test: as above; format: cell-based; conditions: 0.5% oligosaccharide preparation, anaerobic, 5 days, 37° C
[16] = test system: Bifidobacterium pseudocatenulatum 27919; test: as above; format: cell-based; conditions: 0.5% oligosaccharide preparation, anaerobic, 5 days, 37° C
[17] = test system: Bifidobacterium adolescentis 15704; test: as above; format: cell-based; conditions: 0.5% oligosaccharide preparation, anaerobic, 5 days, 37° C
[18] = test system: Bifidobacterium adolescentis 15706; test: as above; format: cell-based; conditions: 0.5% oligosaccharide preparation, anaerobic, 5 days, 37° C
[19] = test system: Bifidobacterium adolescentis 15705; test: as above; format: cell-based; conditions: 0.5% oligosaccharide preparation, anaerobic, 5 days, 37° C
Escherchia coli 8739 = test: as above; format: cell-based, Escherichia coli; conditions: 0.5% oligosaccharide preparation, anaerobic, 5 days, 37° C

Molecule: O=C[C@H](O)[C@@H](O)[C@H](O)[C@H](O)CO [D-glucose]
- Growth (OD600 nm), Bifidobacterium adolescentis 15703 [1]: +++ (OD600 nm ≧ 0.60, high growth)
- Growth (OD600 nm), Salmonella typhimurium 14028 [2]: ++ (OD600 nm 0.31–0.59, medium growth)
- Growth (OD600 nm), Bifidobacterium thermophilum 25866 [3]: +++ (OD600 nm ≧ 0.60, high growth)
- Growth (OD600 nm), Bifidobacterium infantis 15697 [4]: +++ (OD600 nm ≧ 0.60, high growth)
- Growth (OD600 nm), Lactobacillus GG 53103 (Lactobacillus GG 53103): +++ (OD600 nm ≧ 0.60, high growth)
- Growth (OD600 nm), Bifidobacterium breve 15698 [5]: +++ (OD600 nm ≧ 0.60, high growth)
- Growth (OD600 nm), Clostridium perfringens 13124 [6]: +++ (OD600 nm ≧ 0.60, high growth)
- Growth (OD600 nm), Lactobacillus acidophilus 4356 [7]: +++ (OD600 nm ≧ 0.60, high growth)
- Growth (OD600 nm), Bifidobacterium longum 15707 [8]: +++ (OD600 nm ≧ 0.60, high growth)
- Growth (OD600 nm), Bifidobacterium catenulatum 27539 [9]: +++ (OD600 nm ≧ 0.60, high growth)
- Growth (OD600 nm), Bacteroides thetaiotaomicron 29148 [10]: ++ (OD600 nm 0.31–0.59, medium growth)
- Growth (OD600 nm), Bifidobacterium gallicum 49850 [11]: +++ (OD600 nm ≧ 0.60, high growth)
- Alternan (Rel. %) (alternansucrase): 53 Rel. %
- Growth (OD600 nm), Lactobacillus casei 393 (Lactobacillus casei 393): +++ (OD600 nm ≧ 0.60, high growth)
- Growth (OD600 nm), Bifidobacterium boum 27917 [12]: +++ (OD600 nm ≧ 0.60, high growth)
- Growth (OD600 nm), Enterobacter aerogenes 35028 [13]: +++ (OD600 nm ≧ 0.60, high growth)
- Growth (OD600 nm), Bifidobacterium ruminantium 4939 [14]: +++ (OD600 nm ≧ 0.60, high growth)
- Growth (OD600 nm), Bifidobacterium bifidum 29521 [15]: +++ (OD600 nm ≧ 0.60, high growth)
- Growth (OD600 nm), Bifidobacterium pseudocatenulatum 27919 [16]: +++ (OD600 nm ≧ 0.60, high growth)
- Growth (OD600 nm), Bifidobacterium adolescentis 15704 [17]: +++ (OD600 nm ≧ 0.60, high growth)
- Growth (OD600 nm), Bifidobacterium adolescentis 15706 [18]: +++ (OD600 nm ≧ 0.60, high growth)
- Growth (OD600 nm), Bifidobacterium adolescentis 15705 [19]: +++ (OD600 nm ≧ 0.60, high growth)
- Growth (OD600 nm), Escherchia coli 8739 (Escherchia coli 8739): +++ (OD600 nm ≧ 0.60, high growth)

Molecule: OC[C@H]1O[C@@H](O[C@H]2[C@H](O)[C@@H](CO)OC(O)[C@@H]2O)[C@H](O)[C@@H](O)[C@@H]1O (stereo partly shown) [laminaribiose]
- Alternan (Rel. %) (alternansucrase): 58 Rel. %

Molecule: OC[C@H]1O[C@H](O[C@@H]2COC(O)(CO)[C@@H](O)[C@@H]2O)[C@H](O)[C@@H](O)[C@@H]1O (stereo partly shown) [leucrose]
- Alternan (Rel. %) (alternansucrase): 81 Rel. %
- reduction in the amount of alternan formed (alternansucrase; acceptor added at the same initial level as other disaccharides): 19%

Molecule: OC[C@@H](O)[C@@H](O[C@H]1O[C@H](CO)[C@@H](O)[C@H](O)[C@H]1O)[C@H](O)[C@@H](O)CO [maltitol]
- Alternan (Rel. %) (alternansucrase): 18 Rel. %
- acceptor strength for alternansucrase, in words (alternansucrase): excellent acceptor

Molecule: OC[C@H]1O[C@H](O[C@H]2[C@H](O)[C@@H](O)[C@H](O)O[C@@H]2CO)[C@H](O)[C@@H](O)[C@@H]1O [maltose]
- Alternan (Rel. %) (alternansucrase): 11 Rel. %
- acceptor strength for alternansucrase, in words (alternansucrase): excellent acceptor

Molecule: OC[C@@H](O)[C@@H](O)[C@H](O)[C@H](O)CO [mannitol]
- Alternan (Rel. %) (alternansucrase): 100 Rel. %

Molecule: OC[C@H]1O[C@@](CO)(O[C@H]2O[C@H](CO)[C@@H](O)[C@H](O)[C@H]2O)[C@@H](O[C@H]2O[C@H](CO)[C@@H](O)[C@H](O)[C@H]2O)[C@@H]1O [melezitose]
- Alternan (Rel. %) (alternansucrase): 90 Rel. %

Molecule: OC[C@H]1O[C@H](OCC2O[C@@H](O)[C@H](O)[C@@H](O)[C@@H]2O)[C@H](O)[C@@H](O)[C@H]1O (stereo partly shown) [melibiose]
- Alternan (Rel. %) (alternansucrase): 45 Rel. %
- acceptor strength for alternansucrase, in words (alternansucrase): relatively good acceptors

Molecule: O[C@H]1[C@H](O)[C@@H](O)[C@H](O)[C@@H](O)[C@H]1O [myo-inositol]
- Alternan (Rel. %) (alternansucrase): 99 Rel. %

Molecule: OC[C@H]1O[C@H](O[C@H]2[C@H](O)[C@@H](CO)OC(O)[C@@H]2O)[C@H](O)[C@@H](O)[C@@H]1O (stereo partly shown) [nigerose]
- Alternan (Rel. %) (alternansucrase): 23 Rel. %

Molecule: OC[C@H]1O[C@H](OC[C@H]2OC(O)(CO)[C@@H](O)[C@@H]2O)[C@H](O)[C@@H](O)[C@@H]1O (stereo partly shown) [palatinose]
- Alternan (Rel. %) (alternansucrase): 69 Rel. %

Molecule: OC[C@H]1O[C@H](OC[C@H]2O[C@H](O[C@H]3[C@H](O)[C@@H](O)C(O)O[C@@H]3CO)[C@H](O)[C@@H](O)[C@@H]2O)[C@H](O)[C@@H](O)[C@@H]1O (stereo partly shown) [panose]
- Alternan (Rel. %) (alternansucrase): 25 Rel. %

Molecule: OC[C@H]1O[C@H](OC[C@H]2O[C@@](CO)(O[C@H]3O[C@H](CO)[C@@H](O)[C@H](O)[C@H]3O)[C@@H](O)[C@@H]2O)[C@H](O)[C@@H](O)[C@H]1O [planteose]
- Alternan (Rel. %) (alternansucrase): 76 Rel. %

Molecule: OC[C@H]1O[C@H](OC[C@H]2O[C@H](O[C@]3(CO)O[C@H](CO)[C@@H](O)[C@@H]3O)[C@H](O)[C@@H](O)[C@@H]2O)[C@H](O)[C@@H](O)[C@H]1O [raffinose]
- Alternan (Rel. %) (alternansucrase): 67 Rel. %
- acceptor strength for alternansucrase, in words (alternansucrase): relatively good acceptors

Molecule: OC[C@H]1O[C@@H](O[C@H]2C(O)O[C@H](CO)[C@@H](O)[C@@H]2O)[C@H](O)[C@@H](O)[C@@H]1O (stereo partly shown) [sophorose]
- Alternan (Rel. %) (alternansucrase): 80 Rel. %

Molecule: OC[C@@H](O)[C@@H](O)[C@H](O)[C@@H](O)CO [sorbitol]
- Alternan (Rel. %) (alternansucrase): 82 Rel. %

Molecule: OC[C@H]1O[C@H](OC[C@H]2O[C@H](OC[C@H]3O[C@H](O[C@]4(CO)O[C@H](CO)[C@@H](O)[C@@H]4O)[C@H](O)[C@@H](O)[C@@H]3O)[C@H](O)[C@@H](O)[C@H]2O)[C@H](O)[C@@H](O)[C@H]1O [stachyose]
- Alternan (Rel. %) (alternansucrase): 89 Rel. %

Molecule: OC[C@H]1O[C@@](CO)(O[C@H]2O[C@H](CO[C@H]3O[C@H](CO)[C@@H](O)[C@H](O)[C@H]3O)[C@@H](O)[C@H](O)[C@H]2O)[C@@H](O)[C@@H]1O [theanderose]
- Alternan (Rel. %) (alternansucrase): 42 Rel. %

Molecule: O=C(CO)[C@@H](O[C@H]1O[C@H](CO)[C@@H](O)[C@H](O)[C@H]1O)[C@H](O)[C@H](O)CO [turanose]
- Alternan (Rel. %) (alternansucrase): 57 Rel. %

Molecule: OC[C@@H](O)[C@H](O)[C@@H](O)CO [xylitol]
- Alternan (Rel. %) (alternansucrase): 97 Rel. %

Molecule: OC[C@H]1O[C@H](O[C@H]2O[C@H](CO)[C@@H](O)[C@H](O)[C@H]2O)[C@H](O)[C@@H](O)[C@@H]1O [α,α-trehalose]
- Alternan (Rel. %) (alternansucrase): 102 Rel. %
- acceptor strength for alternansucrase, in words (alternansucrase): not an acceptor

Molecule: CO[C@H]1O[C@H](CO)[C@H](O)[C@H](O)[C@H]1O [α-methyl-D-galactoside, α-methyl-D-galactopyranoside]
- Alternan (Rel. %) (alternansucrase): 73 Rel. %

Molecule: CO[C@H]1O[C@H](CO)[C@@H](O)[C@H](O)[C@H]1O [α-methyl-D-glucoside, α-methyl-D-glucopyranoside]
- Alternan (Rel. %) (alternansucrase): 20 Rel. %

Molecule: CO[C@H]1O[C@H](CO)[C@@H](O)[C@H](O)[C@@H]1O [α-methyl-D-mannoside, α-methyl-D-mannopyranoside]
- Alternan (Rel. %) (alternansucrase): 70 Rel. %

Molecule: CCCCCCCCCCCCO[C@@H]1O[C@H](CO)[C@@H](O[C@H]2O[C@H](CO)[C@@H](O)[C@H](O)[C@H]2O)[C@H](O)[C@H]1O [β-dodecyl maltoside]
- Alternan (Rel. %) (alternansucrase): 83 Rel. %

Molecule: CO[C@@H]1O[C@H](CO)[C@H](O)[C@H](O)[C@H]1O [β-methyl-D-galactoside, β-methyl-D-galactopyranoside]
- Alternan (Rel. %) (alternansucrase): 94 Rel. %

Molecule: CO[C@@H]1O[C@H](CO)[C@@H](O)[C@H](O)[C@H]1O [β-methyl-D-glucoside]
- Alternan (Rel. %) (alternansucrase): 60 Rel. %

Molecule: CO[C@@H]1O[C@H](CO)[C@@H](O)[C@H](O)[C@@H]1O [β-methyl-D-mannoside]
- Alternan (Rel. %) (alternansucrase): 89 Rel. %

Molecule: COC1OCC(O)C(O)C1O [β-methyl-D-xyloside]
- Alternan (Rel. %) (alternansucrase): 96 Rel. %

Molecule: CCCCCCCCO[C@@H]1O[C@H](CO)[C@@H](O)[C@H](O)[C@H]1O [β-octyl D-glucoside, β-octyl-D-glucopyranoside]
- Alternan (Rel. %) (alternansucrase): 52 Rel. %

Molecule: gentiobiose
- Alternan (Rel. %) (alternansucrase): 25 Rel. %
- acceptor strength for alternansucrase, in words (alternansucrase): surprisingly good acceptor

Molecule: maltotriose
- Alternan (Rel. %) (alternansucrase): 65 Rel. %
